Reference: paper PMC5736175, “Nicotinic alpha 7 receptor agonists EVP-6124 and BMS-933043, attenuate scopolamine-induced deficits in visuo-spatial paired associates learning” (PLoS ONE, 2017)
Several values for one entry are separate records, joined by “and”; a condition that tells them apart may be missing. Equal values may be shown once. Where a name gives a salt, the structure may show the parent alone. Marks after values point to notes of the source that are not given here.

What was measured:
[1] = tested on: scopolamine-treated cynomolgus monkeys; experiment: Scopolamine-induced impairment of vsPAL task performance, treatment + scopolamine; assay type: in vivo, cynomolgus monkeys (Macaca Fasicularis); settings: for scopolamine impairment: difference between vehicle+vehicle and vehicle+scopolamine, % correct eventual: 4-stimuli condition; for Percent Correct on Initial Attempt (SEM), 2 stimuli / Percent Correct on Initial Attempt (SEM), 3 stimuli / Percent Correct on Initial Attempt (SEM), 4 stimuli: Vehicle + Scopolamine; for mean (cohen's d calculations): eventual correct, 4-stimuli
Protocol: Doses cited refer to the free base form of the compounds. […] All drugs were administered intramuscularly (i.m.) in a dosing volume of 0.1–0.2 ml/kg.
On days when compound testing occurred, approximately half the cohort received one dose and the remainder another dose of the same compound and therefore dose order was staggered between animals. With the exception of EVP-6124, all other compounds were tested in a single dose response study.
Cohen’s d values of >0.2, >0.5 and >0.8 are described using the conventions of small, medium, and large effects, respectively.

cynomolgus monkeys = experiment: Scopolamine dose-response on CANTAB vsPAL task performance
From the text: Thirteen experimentally naïve male cynomolgus monkeys (Macaca Fasicularis; 3–5 years of age; 5.0–7.5 kg at the beginning of the study) served as subjects. Subjects were housed in pairs, separated during testing (Monday through Friday) and re-paired after feeding in the afternoon. Subjects were fed standard monkey chow (Harlan Teklad Global 20% protein Primate Diet 2050) in sufficient quantities to ensure normal growth while maintaining sufficient motivation to perform the cognitive testing [30]. Water was continuously available except during behavioral testing. Fresh fruit, toys and foraging devices were routinely provided in the monkey colony rooms.
For behavioral testing subjects were seated comfortably in restraint chairs (Primate Products, Immokalee, FL), and placed in individual, sound attenuated chambers (Med-Associates, St. Albans, VT), equipped with lights, a white noise generator and a monitoring camera. A touch-sensitive computer monitor was within easy reach and session events were controlled by a Monkey CANTAB test station; (Lafayette Instruments, Lafayette, IN) and Whisker Control [45]. Following correct responses, a dispenser delivered 190 mg banana-flavored pellets (Bioserv, Frenchtown PA).
Ten subjects were trained to perform the CANTAB vsPAL test as previously described [38, 46]. Briefly, the test required the animal to associate a stimulus (abstract shape) with a given spatial location on the computer screen (one of the four corners; S1 Fig). Ten trials each of increasing difficulty (2-, 3- or 4- stimuli) were presented. Trials began with the ‘sample phase’ where stimuli are presented and touched sequentially in their respective locations with a 1 sec delay between stimuli. Following 5 sec where the screen was blank, the choice phase began. The same stimulus was presented in all four corners of the screen for all difficulty levels. […] After a 1 sec screen blank another stimulus was presented in all four corners. If the animal touched the correct location for all shapes in the choice phase on the first attempt the trial was recorded as ‘correct on the initial attempt’. […] The same trial could be repeated up to 5 additional times.
If the animal learned the sequence by the 6th attempt, the trial was recorded as ‘eventual correct’, or ‘incorrect’ if not. […] Additional measures were the percent completion (the proportion of trials on which both sample and choice responses were made), and response latency (time from sample onset to the screen touch in the choice phase, averaged across difficulty conditions).
Drug testing was conducted on Mondays and Thursdays. An additional baseline session was conducted on Tuesdays. […] Additional animals were included in later studies as their performance improved.
There was a washout period of at least 2 weeks between studies.
Accuracy measures (i.e. percent initially correct and percent eventually correct) were analyzed with repeated measures analysis of variance (RM-ANOVA) with the two within-subject factors of difficulty (mean of number of stimuli per trial and overall mean) and treatment. Latencies to respond in all choice phases and percent task completed for the entire session were analyzed by one way RM ANOVA. […] Statistical tests were performed using OriginPro v 9.1 (OriginLab Co., Northampton, MA). Missing data were filled with the mean of the respective cell to enable RM ANOVA computation.

[2] = Average Individualized Scopolamine (0.0045-0.0067 mg/kg) + Vehicle, individual animals
[3] = Average Individualized Scopolamine + Vehicle, MEAN of 8 animals
[4] = Average Individualized Scopolamine + Vehicle, group MEAN
[5] = Average Individualized Scopolamine + Vehicle, group MEAN of 6 animals
[6] = EVP DRC 2, Average Individualized Scopolamine + Vehicle, group MEAN of 7 animals
[7] = Scopolamine 0.003 mg/kg, i.m., MEAN
[8] = Scopolamine 0.003 mg/kg, i.m., individual animals
[9] = Scopolamine 0.0056 mg/kg, i.m., MEAN
[10] = Scopolamine 0.0056 mg/kg, i.m., individual animals
[11] = Scopolamine 0.01 mg/kg i.m., MEAN
[12] = Scopolamine 0.01 mg/kg i.m., individual animals

CN1[C@@H]2C[C@@H](OC(=O)[C@H](CO)c3ccccc3)C[C@H]1[C@@H]1O[C@@H]12 [Scopolamine, Scopolamine HCl]
scopolamine impairment: difference between vehicle+vehicle and vehicle+scopolamine, % correct eventual ([1]; donepezil study): 49.4%
scopolamine impairment: difference between vehicle+vehicle and vehicle+scopolamine, % correct eventual ([1]; first EVP-6124 study): 20.5%
% Completion [1, 2]: 57.3% and 62.4% and 94.5% and 85.3% and 87.0% and 81.6%
Average Response Latency [1, 2]: 1943.4 ms and 2791.5 ms and 2008.6 ms and 2389.3 ms and 2808.7 ms and 2502.8 ms
Eventual Correct, 2 Stimuli [1, 2]: 90.0% and 100.0% and 95.0% and 97.5%
Eventual Correct, 3 Stimuli [1, 2]: 65.7% and 66.7% and 90.0%
Eventual Correct, 4 Stimuli [1, 2]: 36.7% and 32.2% and 47.1% and 63.3% and 32.5% and 69.2%
Eventual Correct, Overall Mean % Correct [1, 2]: 66.2% and 66.3% and 73.2% and 84.4% and 71.7% and 85.6%
Initial Correct, 3 Stimuli [1, 2]: 40.0% and 47.5% and 30.0% and 42.5% and 60.0%
Initial Correct, 4 Stimuli [1, 2]: 16.7% and 22.5% and 20.0%
Initial Correct, Overall Mean % Correct [1, 2]: 53.1% and 56.9% and 66.9%
Initial correct, 2 Stimuli [1, 2]: 60.0% and 95.0% and 70.0% and 87.5%
Average Response Latency (Avg Rsp Lat) [1, 3]: 2342.3 ms
Eventual Correct, 2 Stimuli [1, 3]: 98.1%
Eventual Correct, 4 Stimuli [1, 3]: 50.3%
Eventual Correct, Overall Mean % Correct [1, 3]: 76.1%
Initial Correct, 3 Stimuli [1, 3]: 46.2%
Initial Correct, 4 Stimuli [1, 3]: 19.5%
Initial correct, 2 Stimuli [1, 3]: 84.3%
% Completion [1, 4]: 83.8%
Average Response Latency (Avg rsp lat) [1, 4]: 1934.6 ms
Eventual Correct, 2 Stimuli [1, 4]: 99.7%
Eventual Correct, 3 Stimuli [1, 4]: 98.0%
Eventual Correct, Overall Mean % Correct [1, 4]: 92.3%
Initial Correct, 3 Stimuli [1, 4]: 70.0%
Initial Correct, Overall Mean % Correct [1, 4]: 65.4%
Initial correct, 2 Stimuli [1, 4]: 87.2%
% Completion [1, 5]: 78.0%
Average Response Latency [1, 5]: 2407.4 ms
Eventual Correct, 2 Stimuli [1, 5]: 97.1%
Eventual Correct, 4 Stimuli [1, 5]: 46.8%
Eventual Correct, Overall Mean % Correct [1, 5]: 74.6%
Initial Correct, 3 Stimuli [1, 5]: 49.2%
Average Response Latency (Avg rsp lat) [1, 6]: 2021.60 ms
Eventual Correct, 2 Stimuli [1, 6]: 99.5%
Eventual Correct, 3 Stimuli [1, 6]: 95.7%
Eventual Correct, 4 Stimuli [1, 6]: 65.7%
Eventual Correct, Overall Mean % Correct [1, 6]: 87.7%
Initial Correct, 3 Stimuli [1, 6]: 66.2%
Initial Correct, 4 Stimuli [1, 6]: 34.6%
Initial Correct, Overall Mean % Correct [1, 6]: 64.9%
Initial correct, 2 Stimuli [1, 6]: 91.9%
Percent Correct on Initial Attempt (SEM), 2 stimuli ([1]; BMS-933043 study): 89.6% (1.8%)
Percent Correct on Initial Attempt (SEM), 3 stimuli ([1]; BMS-933043 study): 67.0% (5.0%)
Percent Correct on Initial Attempt (SEM), 4 stimuli ([1]; BMS-933043 study): 37.3% (7.4%) ††
Percent Correct on Initial Attempt (SEM), 2 stimuli ([1]; EVP-6124 study 1): 87.3% (4.0%)
Percent Correct on Initial Attempt (SEM), 3 stimuli ([1]; EVP-6124 study 1): 70.0% (3.4%) ††
Percent Correct on Initial Attempt (SEM), 4 stimuli ([1]; EVP-6124 study 1): 38.8% (4.0%) ††
Percent Correct on Initial Attempt (SEM), 2 stimuli ([1]; EVP-6124 study 2): 91.9% (3.6%)
Percent Correct on Initial Attempt (SEM), 3 stimuli ([1]; EVP-6124 study 2): 66.2% (7.6%) †
Percent Correct on Initial Attempt (SEM), 4 stimuli ([1]; EVP-6124 study 2): 34.6% (4.2%) ††
Percent Correct on Initial Attempt (SEM), 2 stimuli ([1]; RG3487 study): 84.3% (2.8%)
Percent Correct on Initial Attempt (SEM), 3 stimuli ([1]; RG3487 study): 46.2% (8.0%) ††
Percent Correct on Initial Attempt (SEM), 4 stimuli ([1]; RG3487 study): 19.5% (4.9%) ††
Percent Correct on Initial Attempt (SEM), 2 stimuli ([1]; donepezil study): 79.6% (5.3%)
Percent Correct on Initial Attempt (SEM), 3 stimuli ([1]; donepezil study): 49.2% (6.5%) †
Percent Correct on Initial Attempt (SEM), 4 stimuli ([1]; donepezil study): 25.8% (4.5%) ††
mean (cohen's d calculations) ([1]; scop+vehicle, donepezil study): 46.8
mean (cohen's d calculations) ([1]; veh+scop, BMS-933043 study): 65.7
mean (cohen's d calculations) ([1]; vehicle+scop, EVP-6124 study 2): 65.7
Eventual Correct, 2 Stimuli (cynomolgus monkeys; [7]): 100.0%
Eventual Correct, 3 Stimuli (cynomolgus monkeys; [7]): 100.0%
Eventual Correct, 4 Stimuli (cynomolgus monkeys; [7]): 90.0%
Eventual Correct, Overall Mean % Correct (cynomolgus monkeys; [7]): 96.7%
Initial Correct, 3 Stimuli (cynomolgus monkeys; [7]): 68.7%
Initial Correct, 4 Stimuli (cynomolgus monkeys; [7]): 57.5%
Initial Correct, Overall Mean % Correct (cynomolgus monkeys; [7]): 74.2%
Initial correct, 2 Stimuli (cynomolgus monkeys; [7]): 96.3%
% Completion (cynomolgus monkeys; [8]): 63.0% and 97.0% and 100.0% and 84.0%
Average Response Latency, ms (Avg Rsp Lat) (cynomolgus monkeys; [8]): 6153.3 ms and 1831.0 ms and 1549.1 ms and 1787.2 ms and 2129.2 ms and 2342.9 ms and 2289.1 ms and 1548.2 ms
Eventual Correct, 2 Stimuli (cynomolgus monkeys; [8]): 100.0%
Eventual Correct, 3 Stimuli (cynomolgus monkeys; [8]): 100.0%
Eventual Correct, 4 Stimuli (cynomolgus monkeys; [8]): 90.0% and 100.0%
Eventual Correct, Overall Mean % Correct (cynomolgus monkeys; [8]): 93.3% and 96.7% and 100.0%
Initial Correct, 3 Stimuli (cynomolgus monkeys; [8]): 70.0% and 100.0% and 40.0% and 60.0%
Initial Correct, 4 Stimuli (cynomolgus monkeys; [8]): 30.0% and 70.0% and 100.0% and 50.0% and 60.0%
Initial Correct, Overall Mean % Correct (cynomolgus monkeys; [8]): 63.3% and 100.0% and 73.3% and 66.7% and 70.0% and 76.7%
Initial correct, 2 Stimuli (cynomolgus monkeys; [8]): 90.0% and 100.0%
Eventual Correct, 2 Stimuli (cynomolgus monkeys; [9]): 95.0%
Eventual Correct, 3 Stimuli (cynomolgus monkeys; [9]): 84.3%
Eventual Correct, 4 Stimuli (cynomolgus monkeys; [9]): 51.1%
Eventual Correct, Overall Mean % Correct (cynomolgus monkeys; [9]): 76.8%
Initial Correct, 3 Stimuli (cynomolgus monkeys; [9]): 54.3%
Initial Correct, 4 Stimuli (cynomolgus monkeys; [9]): 32.8%
% Completion (cynomolgus monkeys; [10]): 21.0% and 62.0% and 51.0% and 97.0% and 88.0% and 91.0% and 34.5%
Average Response Latency, ms (Avg Rsp Lat) (cynomolgus monkeys; [10]): 1881.3 ms and 2302.7 ms and 2706.5 ms and 2004.6 ms and 2231.8 ms and 2896.7 ms and 2108.4 ms and 1817.8 ms
Eventual Correct, 2 Stimuli (cynomolgus monkeys; [10]): 60.0% and 100.0%
Eventual Correct, 3 Stimuli (cynomolgus monkeys; [10]): 100.0% and 50.0% and 90.0% and 70.0%
Eventual Correct, 4 Stimuli (cynomolgus monkeys; [10]): 50.0% and 16.7% and 70.0% and 0.0% and 90.0%
Eventual Correct, Overall Mean % Correct (cynomolgus monkeys; [10]): 83.3% and 55.6% and 86.7% and 90.0% and 56.7% and 96.7%
Initial Correct, 3 Stimuli (cynomolgus monkeys; [10]): 70.0% and 40.0% and 20.0% and 60.0% and 50.0%
Initial Correct, 4 Stimuli (cynomolgus monkeys; [10]): 30.0% and 16.7% and 50.0% and 0.0% and 60.0%
Initial Correct, Overall Mean % Correct (cynomolgus monkeys; [10]): 26.0% and 63.3% and 76.7% and 53.3%
Initial correct, 2 Stimuli (cynomolgus monkeys; [10]): 50.0% and 90.0% and 100.0%
Eventual Correct, 2 Stimuli (cynomolgus monkeys; [11]): 96.3%
Eventual Correct, 4 Stimuli (cynomolgus monkeys; [11]): 36.8%
Eventual Correct, Overall Mean % Correct (cynomolgus monkeys; [11]): 68.5%
Initial Correct, 3 Stimuli (cynomolgus monkeys; [11]): 47.8%
Initial Correct, 4 Stimuli (cynomolgus monkeys; [11]): 20.1%
% Completion (cynomolgus monkeys; [12]): 63.6% and 78.0% and 52.6% and 100.0% and 43.5% and 50.8% and 31.0%
Average Response Latency, ms (Avg Rsp Lat) (cynomolgus monkeys; [12]): 3290.4 ms and 1872.3 ms and 1904.8 ms and 2135.7 ms and 2272.7 ms and 2295.1 ms and 2067.4 ms and 1369.7 ms
Eventual Correct, 2 Stimuli (cynomolgus monkeys; [12]): 100.0% and 90.0% and 80.0%
Eventual Correct, 3 Stimuli (cynomolgus monkeys; [12]): 100.0% and 60.0% and 90.0% and 14.3%
Eventual Correct, 4 Stimuli (cynomolgus monkeys; [12]): 44.4% and 25.0% and 0.0%
Eventual Correct, Overall Mean % Correct (cynomolgus monkeys; [12]): 81.5% and 75.0% and 53.3% and 89.3%
Initial Correct, 3 Stimuli (cynomolgus monkeys; [12]): 50.0% and 70.0% and 90.0% and 30.0% and 0.0% and 12.5%
Initial Correct, 4 Stimuli (cynomolgus monkeys; [12]): 33.3% and 25.0% and 0.0% and 22.2%
Initial Correct, Overall Mean % Correct (cynomolgus monkeys; [12]): 68.3% and 36.7% and 60.7% and 26.7% and 20.9% and 53.4%
Initial correct, 2 Stimuli (cynomolgus monkeys; [12]): 90.0% and 60.0% and 30.0%
